The values below come from PubChem BioAssay (NCI).

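Interpolation was linear, between the two tested concentrations surrounding the appropriate level; five concentrations were tested over 48 hours in 96-well plates. GI50 is the concentration that inhibits growth by half. TGI: total growth inhibition.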

Among the test systems are TK-10 renal; SW-620 colon; UO-31 renal; NCI-H23 lung; SNB-19 CNS; OVCAR-5 ovarian; NCI-H522 lung; OVCAR-4 ovarian.
Experiment in all cases: inhibition of tumour cell growth, NCI panel, 48 h

Regarding `O=C(O)CCNC1CCCCC1`, the GI50 was more than 100000 nM with TK-10 renal; more than 100 µM with SW-620 colon; more than 100 µM in the assay on UO-31 renal; more than 100 µM with NCI-H23 lung; more than 100 µM in the assay on SNB-19 CNS; more than 100 µM with OVCAR-5 ovarian. The GI50 is more than 100000 nM in the assay with NCI-H522 lung and more than 100 µM with OVCAR-4 ovarian. In addition, the TGI in the assay with TK-10 renal, in the assay on SW-620 colon, in the assay with UO-31 renal, with NCI-H23 lung, in the assay with SNB-19 CNS and with OVCAR-5 ovarian was more than 100 µM throughout. In addition, the TGI in the assay with NCI-H522 lung and in the assay with OVCAR-4 ovarian was more than 100 µM in each case.

With `O=C(CCN(C(=O)O)S(=O)(=O)c1ccc(NC(=O)c2ccccc2)cc1)NC1CCCCC1`, the TGI with TK-10 renal was more than 100 µM; with SW-620 colon, 33.1 µM; in the assay on UO-31 renal, more than 100 µM; in the assay with NCI-H23 lung, more than 100 µM; with SNB-19 CNS, more than 100 µM; in the assay on OVCAR-5 ovarian it was more than 100 µM. Moreover, the TGI in the assay with NCI-H522 lung and with OVCAR-4 ovarian was more than 100 µM throughout.

Consider `Nc1cccc(S(=O)(=O)NCC(=O)O)c1`, for which the TGI in the assay with TK-10 renal, with SW-620 colon, in the assay on UO-31 renal, in the assay on NCI-H23 lung, with SNB-19 CNS and in the assay on OVCAR-5 ovarian was more than 100 µM in each case. The TGI in the assay on NCI-H522 lung and in the assay on OVCAR-4 ovarian was more than 100 µM throughout.

Turning to `O=C1CCC(N2C(=O)c3ccccc3C2=O)C(=O)N1CO` (stereo unspecified), the GI50 in the assay with TK-10 renal is more than 100000 nM; with SW-620 colon it was 32.4 µM; in the assay with UO-31 renal it was more than 100 µM; in the assay with NCI-H23 lung, 39.6 µM; with SNB-19 CNS it was more than 100 µM; in the assay with OVCAR-5 ovarian, more than 100 µM. For the same compound, the GI50 in the assay on NCI-H522 lung is more than 100000 nM; with OVCAR-4 ovarian, more than 100 µM. In addition, the TGI was more than 100 µM with TK-10 renal; more than 100 µM in the assay on SW-620 colon; more than 100 µM in the assay on UO-31 renal; 94.6 µM in the assay on NCI-H23 lung; more than 100 µM in the assay on SNB-19 CNS; more than 100 µM with OVCAR-5 ovarian. In addition, the TGI with NCI-H522 lung and in the assay on OVCAR-4 ovarian was more than 100 µM throughout.

Take `Nc1nc2c(nnn2C2CC(O)C(CO)O2)c(=O)[nH]1` (stereo unspecified): the GI50 was more than 100000 nM in the assay on TK-10 renal; 3.74 µM in the assay on SW-620 colon; 3.96 µM in the assay on UO-31 renal; 4.61 µM with NCI-H23 lung; 34.1 µM in the assay on SNB-19 CNS; 26.2 µM in the assay with OVCAR-5 ovarian. In addition, the GI50 is 3810 nM in the assay with NCI-H522 lung and 11.5 µM in the assay with OVCAR-4 ovarian. In addition, the TGI in the assay on TK-10 renal, in the assay with SW-620 colon, in the assay with UO-31 renal, in the assay with NCI-H23 lung, with SNB-19 CNS and with OVCAR-5 ovarian was more than 100 µM each time. In addition, the TGI with NCI-H522 lung and in the assay with OVCAR-4 ovarian was more than 100 µM each time.

For the compound `Cc1ccc(-c2nc3nc(-c4ccccc4)nc(N4CCCNCC4)c3o2)cc1`, the GI50 was 1730 nM in the assay with TK-10 renal; 1.55 µM with SW-620 colon; 1.55 µM in the assay with UO-31 renal; 1.89 µM in the assay with NCI-H23 lung; 1.63 µM in the assay with SNB-19 CNS; 1.89 µM in the assay with OVCAR-5 ovarian. For the same compound, the GI50 in the assay on NCI-H522 lung is 1730 nM; with OVCAR-4 ovarian it was 1.59 µM. Besides, the TGI in the assay on TK-10 renal was found to be 3.14 µM; in the assay with SW-620 colon, 3.17 µM; in the assay on UO-31 renal, 2.96 µM; with NCI-H23 lung, 3.8 µM; in the assay on SNB-19 CNS it was 3.11 µM; in the assay on OVCAR-5 ovarian, 3.37 µM. Moreover, the values for the TGI in the assay on NCI-H522 lung and in the assay on OVCAR-4 ovarian were 3.39 µM and 3.09 µM, respectively.

Turning to `C[C@@H]1OC(=O)N2CCCC(=C3SCCCS3)C12` (stereo partly specified), the TGI with TK-10 renal, in the assay with SW-620 colon, in the assay with UO-31 renal, in the assay on NCI-H23 lung, in the assay with SNB-19 CNS and in the assay on OVCAR-5 ovarian was more than 100 µM in each case. For the same compound, the TGI with NCI-H522 lung and with OVCAR-4 ovarian was more than 100 µM in each case.

For `CCCCCCCC[C@@H](O)CC(=O)N[C@@H](CC(N)=O)C(=O)N[C@@H](CCC(N)=O)C(=O)N[C@@H](CC(=O)c1cc(C)cc(O)c1C(=O)c1c(O)cccc1O)CC(C)C`, the GI50 in the assay on TK-10 renal is 179 nM; with SW-620 colon, 0.426 µM; in the assay on UO-31 renal it was 3.9 µM; with NCI-H23 lung, 1.36 µM; in the assay with SNB-19 CNS it was 0.244 µM; with NCI-H522 lung it was 228 nM. Also, the GI50 with OVCAR-4 ovarian was 2.07 µM. In addition, the TGI is 1.26 µM with TK-10 renal; 23.6 µM with SW-620 colon; 24.7 µM in the assay on UO-31 renal; 14.8 µM in the assay with NCI-H23 lung; more than 100 µM in the assay with SNB-19 CNS; 27.7 µM in the assay on OVCAR-5 ovarian. The TGI in the assay with NCI-H522 lung was 0.815 µM; in the assay on OVCAR-4 ovarian, more than 100 µM.

As to `CC1CN1C(=O)NCCCCCCNC(=O)N1CC1C` (stereo unspecified), the TGI with TK-10 renal, in the assay with SW-620 colon, in the assay on UO-31 renal, in the assay on NCI-H23 lung, in the assay with SNB-19 CNS and with OVCAR-5 ovarian was more than 100 µM each time. Moreover, the TGI with NCI-H522 lung and in the assay with OVCAR-4 ovarian was more than 100 µM in each case.
